Measured values published in US8110703B2, “Retinoid derivative and pharmaceutical composition and use thereof” (Anhui Medical University, priority 2008, dated 2012).

Legend:
Format in all cases: cell-based
K562 cells = assay: Cell cycle analysis by flow cytometer, K562; parameters: S %: dose or concentration left out as unconfirmed; settings: 72 h
Protocol: (§1) Retinoic acid derivatives and fenretinide are prepared as a storage solution of 10 mg/mL by anhydrous ethanol and stored at […] and kept out of light.
(§2) NB4 cells and K562 cells are inoculated with an initial concentration of 2*10^5/ml in the RPMI1640 culture solution having 10% of calf serum (FBS), 100 u/ml of penicillin, 100 Lg/ml of streptomycin and 2 mmol/L of glutamine for suspension culture (37° C., 5% CO2). Change the solution every 2-3 days.
(§3) For the cells above acted by the retinoic acid derivatives and fenretinide ([…]) for 72 h, about 10^6 of them are collected, washed by PBS twice, fixed by 70% of cold ethanol over 24 h, washed by PBS twice, added with 5 ug/ml of propidium iodide for staining and detected by a flow cytometer from which the data are analyzed and processed by the multi-cycle software.

A549 lung cancer cells = assay: MTT cell growth and proliferation experiment, A549; parameters: key to Inhibition Rate: (control OD570 − test OD570)/control OD570, as fraction; settings: 3 d; for OD Value (x ± s): A549, MTT OD 570 nm; for Inhibition Rate: A549, MTT, given as fraction
Protocol: (§4) 1.1 Reagents 12 retinoic acid derivatives with the final concentrations of 1 ug/ml, 5 ug/ml and 10 ug/ml are synthesized by the Pharmaceutical College of Anhui Medical University using DMSO and anhydrous ethanol, separately packaged for storage at −20° C. and kept out of the light when used, and the final concentration of DMSO is less than 0.1%. MTT is purchased from Sigma Corp. The Coulter DNA detection kit is presented by the Central Lab of Anhui Provincial Hospital. AFP and γ-GT are provided by the Clinical Lab of No. 105 Hospital of PLA. Apoptosis-Hoechst staining kit is purchased from Beyotime Company.
(§5) 1.2 Cell Culture A549, and HpeG2 cells are stored by our lab. Cell growth condition: DMEM (from GIBICO Company) culture solution is added with 10% of calf serum (purchased from the Hangzhou Sijiqing Biological Engineering Material Co., Ltd.) to culture in a cell culture incubator (37° C., 5% CO2) with saturated humidity.
(§6) 1.3 Cell Growth and Proliferation Experiments MTT process is used. Cells in the logarithmic phase are picked and seeded on a 96-hole culture board with a cell concentration of 5×10^7/L. Each hole of the board is 200 ul. The next day after the adherence, the original solution is discarded, and the culture solution is added. The cells are divided into 1 ug/ml retinoic acid derivative groups, 5 ug/ml retinoic acid derivative groups, 10 ug/ml retinoic acid derivative groups, blank control groups, cell control groups, solvent control groups (1‰ DMSO and anhydrous ethanol) (17 in total) according to the concentrations thereof, incubated for 3d, added with MTT (5 g/L) of 20 ul/hole for incubation at 37° C. for 4 h. The original solution is carefully discarded and dried, and DMSO of 20 ul/hole is added to dissolve crystals, followed by vibrating for 10 min and determining the OD value at 570 nm. Each concentration is corresponding to 5 holes, and each group calculates the average of 3 experiments to calculate the inhibition rate to the cell growth according to the optical density (OD) average of each hole in each group and the following equation: inhibition rate %=(control hole OD570−experimental hole OD570)/control hole OD5700*100%. The process above is repeated for three times. The second experiment takes the maximum concentration (10 […]) for culture respectively for 1, 2, 3 and 7 days and repeat for three times.

liver cancer HepG2 cells = assay: MTT cell growth and proliferation experiment, HepG2; parameters: key to Inhibition Rate: (control OD570 − test OD570)/control OD570, as fraction; settings: 3 d; for OD Value (x ± s): HepG2, MTT OD 570 nm; for Inhibition Rate: HepG2, MTT, fraction
Protocol: as §4, §5, §6

NB4 cells = assay: Cell cycle analysis by flow cytometer, NB4; parameters: S %: dose or concentration left out as unconfirmed; settings: 72 h
Protocol: as §1, §2, §3

Row | SMILES | G1 % (K562 cells) [%] | G2 % (K562 cells) [%] | S % (K562 cells) [%] | OD Value (x ± s) (A549 lung cancer cells; 1 ug/ml, solvent ethanol) | OD Value (x ± s) (A549 lung cancer cells; 5 ug/ml, solvent ethanol) | OD Value (x ± s) (A549 lung cancer cells; 10 ug/ml, solvent ethanol) | Inhibition Rate (A549 lung cancer cells; 1 ug/ml, solvent ethanol) | Inhibition Rate (A549 lung cancer cells; 5 ug/ml, solvent ethanol) | Inhibition Rate (A549 lung cancer cells; 10 ug/ml, solvent ethanol) | OD Value (x ± s) (liver cancer HepG2 cells; 1 ug/ml, solvent ethanol) | OD Value (x ± s) (liver cancer HepG2 cells; 5 ug/ml, solvent ethanol) | OD Value (x ± s) (liver cancer HepG2 cells; 10 ug/ml, solvent ethanol) | Inhibition Rate (liver cancer HepG2 cells; 1 ug/ml, solvent ethanol) | Inhibition Rate (liver cancer HepG2 cells; 5 ug/ml, solvent ethanol) | Inhibition Rate (liver cancer HepG2 cells; 10 ug/ml, solvent ethanol) | OD Value (x ± s) (A549 lung cancer cells; 1 ug/ml, solvent DMSO (D)) | OD Value (x ± s) (A549 lung cancer cells; 5 ug/ml, solvent DMSO (D)) | G1 % (NB4 cells) [%] | G2 % (NB4 cells) [%] | S % (NB4 cells) [%] | also measured
1 | CC1=C(/C=C/C(C)=C/C=C/C(C)=C/C(=O)Oc2ccc(C(F)(F)F)cc2)C(C)(C)CCC1 [Example 2a-01, (4-trifluoromethylphenyl)-(all-trans)-3,7-dimethyl-9-(2,6,6-trimethyl-1-cyclohexen-1-yl)-2,4,6,8-nonatetraenoate] | 36.1 | 12.5 | 51.4 | 1.878 ± 0.158 | 1.487 ± 0.175 | 1.458 ± 0.066 | −0.006 | 0.203 | 0.219 | 1.38 ± 0.56 | 1.31 ± 0.57 | 1.30 ± 0.55 | 0.18 | 0.23 | 0.24 |  |  |  |  |  | 
2 | CC1=C(/C=C/C(C)=C/C=C/C(C)=C/C(=O)Oc2cccc(C(F)(F)F)c2)C(C)(C)CCC1 [Example 2a-02, (3-trifluoromethylphenyl)-(all-trans)-3,7-dimethyl-9-(2,6,6-trimethyl-1-cyclohexen-1-yl)-2,4,6,8-nonatetraenoate] | 35.4 | 9.9 | 54.6 |  |  |  |  |  |  | 1.19 ± 0.52 | 1.13 ± 0.46 | 0.94 ± 0.49 | 0.29 | 0.33 | 0.45 | 1.735 ± 0.048 | 1.621 ± 0.070 |  |  |  | OD Value (x ± s) (A549 lung cancer cells; 10 ug/ml, solvent DMSO (D)): 1.580 ± 0.207; Inhibition Rate (A549 lung cancer cells; 1 ug/ml, solvent DMSO (D)): 0.070; Inhibition Rate (A549 lung cancer cells; 5 ug/ml, solvent DMSO (D)): 0.131; Inhibition Rate (A549 lung cancer cells; 10 ug/ml, solvent DMSO (D)): 0.144
3 | CC1=C(/C=C/C(C)=C/C=C/C(C)=C/C(=O)Oc2ccc(N)c(C(F)(F)F)c2)C(C)(C)CCC1 [Example 4a-01, (4-amino-3-trifluoromethylphenyl)-(all-trans)-3,7-dimethyl-9-(2,6,6-trimethyl-1-cyclohexen-1-yl)-2,4,6,8-nonatetraenoate] | 39.1 | 6.9 | 53.9 |  |  |  |  |  |  |  |  |  |  |  |  |  |  | 59.15 | 7.07 | 33.78 | OD Value (x ± s) (liver cancer HepG2 cells; 1 ug/ml, solvent not given): 1.72 ± 0.44; OD Value (x ± s) (liver cancer HepG2 cells; 5 ug/ml, solvent not given): 1.63 ± 0.36; OD Value (x ± s) (liver cancer HepG2 cells; 10 ug/ml, solvent not given): 1.57 ± 0.30; Inhibition Rate (liver cancer HepG2 cells; 1 ug/ml, solvent not given): −0.009; Inhibition Rate (liver cancer HepG2 cells; 5 ug/ml, solvent not given): 0.04; Inhibition Rate (liver cancer HepG2 cells; 10 ug/ml, solvent not given): 0.07
4 | CC1=C(/C=C/C(C)=C/C=C/C(C)=C/C(=O)Oc2ccc(OC(F)(F)F)cc2)C(C)(C)CCC1 [Example 5a-01, (4-trifluoromethoxyphenyl)-(all-trans)-3,7-dimethyl-9-(2,6,6-trimethyl-1-cyclohexen-1-yl)-2,4,6,8-nonatetraenoate] | 32.6 | 12.5 | 55.0 | 1.962 ± 0.225 | 1.754 ± 0.138 | 1.732 ± 0.317 | −0.051 | 0.060 | 0.072 | 1.57 ± 0.39 | 1.51 ± 0.30 | 1.49 ± 0.23 | 0.07 | 0.11 | 0.12 |  |  | 59.28 | 4.98 | 35.74 | 
5 | CC1=C(/C=C/C(C)=C/C=C/C(C)=C/C(=O)Oc2cccc(OC(F)(F)F)c2)C(C)(C)CCC1 [Example 5a-02, (3-trifluoromethoxyphenyl)-(all-trans)-3,7-dimethyl-9-(2,6,6-trimethyl-1-cyclohexen-1-yl)-2,4,6,8-nonatetraenoate] | 38.2 | 7.7 | 54.2 |  |  |  |  |  |  | 1.27 ± 0.44 | 1.13 ± 0.47 | 1.11 ± 0.61 | 0.25 | 0.33 | 0.35 | 1.843 ± 0.179 | 1.817 ± 0.142 | 60.06 | 4.91 | 35.03 | OD Value (x ± s) (A549 lung cancer cells; 10 ug/ml, solvent DMSO (D)): 1.689 ± 0.154; Inhibition Rate (A549 lung cancer cells; 1 ug/ml, solvent DMSO (D)): 0.012; Inhibition Rate (A549 lung cancer cells; 5 ug/ml, solvent DMSO (D)): 0.027; Inhibition Rate (A549 lung cancer cells; 10 ug/ml, solvent DMSO (D)): 0.095
